Results reported in US20240336629A1, “Tricyclic Derivatives Useful As PARP7 Inhibitors” (JACOBIO PHARMACEUTICALS CO., LTD., priority 2021, published 2024).

Tests used:
[1] = system: lung cancer cell line H1373 (high expression of PARP7); test: Lung cancer cell proliferation inhibition experiment (CTG method); assay type: cell-based; settings: H1373 cells, 144 hrs incubation, Cell Titer Glo
PARP7 enzyme = PARP7 enzyme (Homo sapiens (Human), UniProt Q7Z3E1); test: PARP7 enzymatic experiment (HTRF assay); assay type: biochemical; settings: 4PL fit
Chain of PARP7 enzyme (Q7Z3E1 456-657): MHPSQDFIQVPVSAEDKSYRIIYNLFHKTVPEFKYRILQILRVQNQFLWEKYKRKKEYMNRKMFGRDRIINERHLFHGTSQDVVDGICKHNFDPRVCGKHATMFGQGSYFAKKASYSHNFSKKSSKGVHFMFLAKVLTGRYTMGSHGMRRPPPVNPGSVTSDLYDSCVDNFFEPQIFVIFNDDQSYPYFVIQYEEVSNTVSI

Row | Structure (SMILES) | IC50 ([1]; Homo sapiens, NCI-H1373, 144 h) [µM] | IC50 (PARP7 enzyme) [µM] | IC50 [1] [µM]
1 | CC(C)N1C(=O)[C@@H]2CN(C(=O)CCOC[C@H](C)Nc3cn[nH]c(=O)c3C(F)(F)F)CCN2c2ncc(C(F)(F)F)cc21 (single isomer, unassigned) [Compound 83A] | 0.143 | 0.00379 | 
2 | C[C@@H](COCCC(=O)N1CCN2c3ncc(C(F)(F)F)cc3OC[C@@H]2C1)Nc1cn[nH]c(=O)c1C(F)(F)F [Compound 53B] | 0.214 |  | 
3 | C[C@@H](COCCC(=O)N1CCc2c(c(=O)n(C)c3cc(C(F)(F)F)cnc23)C1)Nc1cn[nH]c(=O)c1C(F)(F)F [Compound 12] |  | 0.00292 | 
4 | C[C@@H](COCCC(=O)N1CCN2c3ncc(C(F)(F)F)cc3N(CC(F)(F)F)C(=O)C2C1)Nc1cn[nH]c(=O)c1C(F)(F)F (stereo partly shown) [Compound 8] | 0.203 |  | 
5 | C[C@@H](COCCC(=O)N1CCN2c3ncc(C(F)(F)F)cc3C(O)CC2C1)Nc1cn[nH]c(=O)c1C(F)(F)F (stereo partly shown) [Compound 80] |  | 0.000946 | 0.151
6 | C[C@@H](COCCC(=O)N1CCN2c3ncc(C(F)(F)F)cc3[S@+]([O-])CC[C@H]2C1)Nc1cn[nH]c(=O)c1C(F)(F)F [Compound 74B] |  | 0.00223 | 
7 | Cc1c(Cl)cnc2c1OCC[C@H]1CN(C(=O)CCOC[C@H](C)Oc3cn[nH]c(=O)c3C(F)(F)F)CCN21 [Compound 85B] | 0.311 | 0.00784 | 
8 | C[C@@H](COCCC(=O)N1CCN2c3ncc(F)cc3N(C)C(=O)[C@H]2C1)Nc1cn[nH]c(=O)c1C(F)(F)F [Compound 19B] | 0.221 | 0.00275 | 
9 | C[C@@H](COC[C@@H](O)C(=O)N1CCN2c3ncc(Cl)cc3OCCC2C1)Nc1cn[nH]c(=O)c1C(F)(F)F (stereo partly shown) [Compound 64A] | 0.208 | 0.0015 | 
10 | C[C@@H](COCCC(=O)N1CCN2c3ncc(C(F)(F)F)cc3OCCC2C1)Nc1cn[nH]c(=O)c1C(F)(F)F (stereo partly shown) [Compound 54] | 0.0636 |  | 
11 | CCN1C(=O)[C@@H]2CN(C(=O)CCOC[C@H](C)Nc3cn[nH]c(=O)c3C(F)(F)F)CCN2c2ncc(Br)cc21 (single isomer, unassigned) [Compound 23A] | 0.117 | 0.000804 | 
12 | C[C@@H](COCCC(=O)N1CCN2c3ncc(C(F)(F)F)cc3SCC[C@H]2C1)Oc1cn[nH]c(=O)c1C(F)(F)F [Compound 86B] | 0.246 | 0.0205 | 
13 | C[C@@H](COCCC(=O)N1CCN2c3ncc(C(F)(F)F)cc3OC[C@H]2C1)Nc1cn[nH]c(=O)c1C(F)(F)F [Compound 53A] | 0.296 |  | 
14 | C[C@@H](COCCC(=O)N1CCN2c3ncc(C(F)(F)F)cc3[S@+]([O-])CC[C@@H]2C1)Nc1cn[nH]c(=O)c1C(F)(F)F [Compound 74A] |  | 0.00216 | 
15 | Cc1c2n(c3ncc(C(F)(F)F)cc13)CCN(C(=O)CCOC[C@H](C)Nc1cn[nH]c(=O)c1C(F)(F)F)C2 [Compound 43] | 0.105 |  | 
16 | C[C@@H](COCCC(=O)N1CCN2c3ncc(C(F)(F)F)cc3OCC2C1)Nc1cn[nH]c(=O)c1C(F)(F)F (stereo partly shown) [Compound 53] | 0.0797 |  | 
17 | C[C@@H](COCCC(=O)N1CCN2c3ncc(C(F)(F)F)cc3S(=O)(=O)CC[C@H]2C1)Nc1cn[nH]c(=O)c1C(F)(F)F [Compound 75B] |  | 0.0135 | 
18 | C[C@@H](COCCC(=O)N1CCn2c(nc3cc(C(F)(F)F)cnc32)C1)Oc1cn[nH]c(=O)c1C(F)(F)F [Compound 49A] | 0.185 |  | 
19 | C[C@@H](COCCC(=O)N1CCN2c3ncc(C(F)(F)F)cc3N(C)C(=O)[C@@H]2C1)Nc1cn[nH]c(=O)c1Cl [Compound 31A] |  | 0.0258 | 
20 | C[C@@H](COCCC(=O)N1CCN2c3ncc(Cl)cc3SCC[C@H]2C1)Nc1cn[nH]c(=O)c1C(F)(F)F (single isomer, unassigned) [Compound 73B] |  | 0.0179 | 
21 | CC(COCCC(=O)N1CCN2c3ncc(Cl)cc3OCCC2C1)Oc1cn[nH]c(=O)c1C(F)(F)F (stereo not shown) [Compound 84] |  | 0.00401 | 

Row | Structure (SMILES) | IC50 ([1]; Homo sapiens, NCI-H1373, 144 h) [µM] | IC50 (PARP7 enzyme) [µM] | IC50 [1] [µM]
22 | C[C@@H](COCCC(=O)N1CCN2c3ncc(C(F)(F)F)cc3N(C)C(=O)[C@@H]2C1)Nc1cn[nH]c(=O)c1Br [Compound 32A] |  | 0.00825 | 
23 | C[C@@H](COCCC(=O)N1CCN2c3nc(F)c(Cl)cc3N(C)C(=O)[C@H]2C1)Nc1cn[nH]c(=O)c1C(F)(F)F [Compound 14B] |  | 0.0399 | 
24 | C[C@@H](COCCC(=O)N1CCN2c3ncc(C(F)(F)F)cc3[S@@+]([O-])CC[C@@H]2C1)Nc1cn[nH]c(=O)c1C(F)(F)F [Compound 74C] |  | 0.0554 | 
25 | C[C@@H](COC[C@H](O)C(=O)N1CCN2c3ncc(Cl)cc3OCCC2C1)Nc1cn[nH]c(=O)c1C(F)(F)F (stereo partly shown) [Compound 64B] |  | 0.00946 | 
26 | C[C@@H](COCCC(=O)N1CCN2c3ncc(C(F)(F)F)cc3[S@@+]([O-])CC[C@H]2C1)Nc1cn[nH]c(=O)c1C(F)(F)F [Compound 74D] |  | 0.0722 | 
27 | C[C@@H](COCCC(=O)N1CCN2c3ncc(C(F)(F)F)cc3NC(=O)CC2C1)Nc1cn[nH]c(=O)c1C(F)(F)F (stereo partly shown) [Compound 1A] |  | 0.0343 | 
28 | C[C@H](COCCC(=O)N1CCN2c3ncc(C(F)(F)F)cc3N(C)C(=O)[C@H]2C1)Oc1cn[nH]c(=O)c1C(F)(F)F [Compound 81D] |  |  | 0.0123
29 | C[C@@H](COCCC(=O)N1CCn2c(cc3cc(C(F)(F)F)cnc32)C1)Nc1cn[nH]c(=O)c1C(F)(F)F [Compound 41] | 0.276 |  | 
30 | C[C@H](COCCC(=O)N1CCN2c3ncc(C(F)(F)F)cc3N(C)C(=O)[C@@H]2C1)Oc1cn[nH]c(=O)c1C(F)(F)F [Compound 81C] |  |  | 0.0192
31 | C[C@@H](COCCC(=O)N1CCN2c3ncc(C(F)(F)F)cc3N(C)CCC2C1)Nc1cn[nH]c(=O)c1C(F)(F)F (stereo partly shown) [Compound 40] | 0.26 |  | 
32 | CC(C)N1C(=O)[C@H]2CN(C(=O)CCOC[C@H](C)Nc3cn[nH]c(=O)c3C(F)(F)F)CCN2c2ncc(C(F)(F)F)cc21 (single isomer, unassigned) [Compound 24B] |  | 0.00317 | 
33 | C[C@@H](COCCC(=O)N1CCn2c(c(Cl)c3cc(C(F)(F)F)cnc32)C1)Nc1cn[nH]c(=O)c1C(F)(F)F [Compound 42] | 0.138 |  | 
34 | C[C@@H](COCCC(=O)N1CCN2c3ncc(C(F)(F)F)cc3NCCC2C1)Nc1cn[nH]c(=O)c1C(F)(F)F (stereo partly shown) [Compound 37] | 0.203 |  | 
35 | C[C@@H](COCCC(=O)N1CCN2c3ncc(C(F)(F)F)cc3S(=O)(=O)CC[C@@H]2C1)Nc1cn[nH]c(=O)c1C(F)(F)F [Compound 75A] |  | 0.00364 | 
36 | C[C@@H](COCCC(=O)N1CCN2c3ncc(C(F)(F)F)cc3C(C)(O)CC2C1)Nc1cn[nH]c(=O)c1C(F)(F)F (stereo partly shown) [Compound 78] |  | 0.00283 | 
37 | C[C@@H](COCCC(=O)N1CCN2c3ncc(Br)cc3SCC[C@@H]2C1)Nc1cn[nH]c(=O)c1C(F)(F)F (single isomer, unassigned) [Compound 72B] |  | 0.00724 | 
38 | C[C@@H](COCCC(=O)N1CCN2c3ncc(C(F)(F)F)cc3N(C)C(=O)[C@H]2C1)Nc1cn[nH]c(=O)c1Br [Compound 32B] |  | 0.02 | 
39 | C[C@@H](COCCC(=O)N1CCN2c3ncc(C(F)(F)F)cc3N(C)C(=O)[C@H]2C1)Nc1cn[nH]c(=O)c1Cl [Compound 31B] |  | 0.059 | 
40 | COc1ccc(Cn2ncc(N3CC[C@H]3COCCC(=O)N3CCN4c5ncc(C(F)(F)F)cc5N(C)C(=O)[C@@H]4C3)c(C(F)(F)F)c2=O)cc1 (single isomer, unassigned) [Compound 87A] |  |  | 0.0058
41 | C[C@@H](COCCC(=O)N1CCN2c3ncc(C(F)(F)F)cc3N(C)CC2C1)Nc1cn[nH]c(=O)c1C(F)(F)F (stereo partly shown) [Compound 39] | 0.108 |  | 
42 | COc1ccc(Cn2ncc(N3CC[C@H]3COCCC(=O)N3CCN4c5ncc(C(F)(F)F)cc5N(C)C(=O)[C@H]4C3)c(C(F)(F)F)c2=O)cc1 (single isomer, unassigned) [Compound 87B] |  |  | 0.00535
